Measured values published in US20050208290A1, “Thick radiation sensitive devices” (priority 2003, published 2005).

Test: preliminary toxicity study
Conditions: no details given

CCCCCCNC(=O)OCC#CC#CCOC(=O)NCCCCCC [compound 166, 2,4-hexadiyn-1,6-bis(n-hexylurethane)]
toxicity: nontoxic
